Source: PubChem BioAssay (NCI)
Values joined by “and” are separate entries in the source; they are usually repeats but may differ in a detail not shown here. Equal entries are not always repeated.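 Test compounds were applied to cells in 96-well plates for 48 hours at 5 doses. GI50 is the concentration that inhibits growth by half. At the TGI there is no net growth.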

Experiments:
Experiment in all cases: DTP human tumour cell line panel, 48 h
[1] = tested on: SF-539 CNS
[2] = tested on: U251 CNS
[3] = tested on: HCT-15 colon
[4] = tested on: LOX IMVI melanoma
[5] = tested on: SK-MEL-28 melanoma
[6] = tested on: SW-620 colon
[7] = tested on: NCI-H226 lung
[8] = tested on: SK-MEL-2 melanoma
[9] = tested on: TK-10 renal
[10] = tested on: 786-0 renal

With `CCn1c(C(=O)N(C2CC2)C2CC2)cc2c3c(ncn3C)c(Nc3cc(C)n(C)n3)nc21` the GI50 [1] was > 100 µM, the TGI [1] was > 100 µM and the GI50 [2] was > 100 µM. For the same compound, the TGI [2] was > 100 µM, the GI50 [3] was > 100 µM and the TGI [3] was > 100 µM. For the same compound, the GI50 [4] was 59.2 µM, the TGI [4] was > 100 µM and the GI50 [5] was > 100 µM. The TGI [5] was > 100 µM, the GI50 [6] was > 100 µM and the TGI [6] was > 100 µM. For the same compound, the GI50 [7] was > 100 µM, the TGI [7] was > 100 µM and the GI50 [8] was > 100 µM. The TGI [8] was > 100 µM, the GI50 [9] was > 100 µM and the TGI [9] was > 100 µM. The GI50 [10] was > 100 µM and the TGI [10] was > 100 µM.

`CC1OC(OCC2OC(Oc3c(-c4ccc(O)cc4)oc4cc(O)cc(O)c4c3=O)C(OC3OC(C)C(O)C(O)C3O)C(O)C2O)C(O)C(O)C1O` (stereo not drawn) was tested, and the TGI [1] was > 100 µM, the TGI [2] was > 100 µM and the TGI [3] was > 56.8 µM. The TGI [4] was > 100 µM, the TGI [5] was > 100 µM and the TGI [6] was > 62.4 µM. The TGI [7] was > 100 µM, the TGI [8] was > 100 µM and the TGI [9] was > 100 µM. For the same compound, the TGI [10] was > 100 µM.

With `CCCC(=O)Nc1cc(C(=O)N2C[C@@H]3C[C@]34C2=CC(=O)c2[nH]cc(C)c24)n(COC)c1` the GI50 [1] was 2.15 µM, the TGI [1] was 31.1 µM and 5.28 µM and the GI50 [2] was 2.39 µM. The TGI [2] was 20.6 µM and 6.21 µM, the GI50 [3] was 13.9 µM and the TGI [3] was 50 µM and 33.3 µM. For the same compound, the GI50 [4] was 2.06 µM, the TGI [4] was 30 µM and 7.17 µM and the GI50 [5] was 3.08 µM. For the same compound, the TGI [5] was 34.2 µM and 10.7 µM, the GI50 [6] was 2.7 µM and the TGI [6] was 50 µM and 19.9 µM. For the same compound, the TGI [7] was 42.1 µM, the GI50 [8] was 1.98 µM and the TGI [8] was 12.2 µM and 3.46 µM. The GI50 [9] was 3.3 µM, the TGI [9] was 23 µM and 7.37 µM and the GI50 [10] was 1.81 µM. For the same compound, the TGI [10] was 15.2 µM and 3.72 µM.

For `COC(=O)C1C(O)CC(c2ccccn2)N(Cc2ccccc2)C1c1ccccn1` (stereo not drawn), the TGI [1] was > 100 µM, the TGI [2] was > 100 µM and the TGI [3] was > 100 µM. For the same compound, the TGI [4] was > 100 µM, the TGI [5] was > 100 µM and the TGI [6] was > 100 µM. For the same compound, the TGI [7] was > 100 µM, the TGI [8] was > 100 µM and the TGI [9] was > 100 µM. For the same compound, the TGI [10] was > 100 µM.

`COc1ccc(N2Cc3cnc(Nc4ccccc4)nc3N([C@@H]3CC[C@@H](O)C3)C2=O)cc1` was tested, and the GI50 [1] was 0.652 µM, the TGI [1] was 5.41 µM and the GI50 [2] was 1.01 µM. For the same compound, the TGI [2] was > 25 µM, the GI50 [3] was 1.66 µM and the TGI [3] was > 25 µM. It also gave a GI50 [4] of 1.14 µM, a TGI [4] of 5.17 µM and a GI50 [5] of 8.19 µM. For the same compound, the TGI [5] was > 25 µM, the GI50 [6] was 3.81 µM and the TGI [6] was > 18.2 µM. For the same compound, the GI50 [7] was 0.523 µM, the TGI [7] was > 25 µM and the GI50 [8] was 5.21 µM. For the same compound, the TGI [8] was 17.5 µM, the GI50 [9] was 1.54 µM and the TGI [9] was 12.9 µM. For the same compound, the GI50 [10] was 3.08 µM and the TGI [10] was > 25 µM.

In the case of `CCCc1c(CC)c(=N)c2ccccc2n1C`, the GI50 [1] is reported as > 100 µM, the TGI [1] is reported as > 100 µM and the GI50 [2] is reported as 47.9 µM. For the same compound, the TGI [2] was > 100 µM, the GI50 [3] was > 100 µM and the TGI [3] was > 100 µM. The GI50 [4] was > 100 µM, the TGI [4] was > 100 µM and the GI50 [5] was 69.2 µM. The TGI [5] was > 100 µM, the GI50 [6] was > 100 µM and the TGI [6] was > 100 µM. The GI50 [7] was 93.6 µM, the TGI [7] was > 100 µM and the GI50 [8] was > 100 µM. The TGI [8] was > 100 µM, the GI50 [9] was > 100 µM and the TGI [9] was > 100 µM. For the same compound, the GI50 [10] was > 100 µM and the TGI [10] was > 100 µM.

Work on `O=Nc1c(-c2c(O)[nH]c3ccc([N+](=O)[O-])cc23)[nH]c2ccc(O)cc12` yielded a GI50 [1] of 0.258 µM, a TGI [1] of 0.827 µM and a GI50 [2] of 0.325 µM. For the same compound, the TGI [2] was > 35.1 µM, the GI50 [3] was 0.376 µM and the TGI [3] was > 100 µM. For the same compound, the GI50 [4] was 0.171 µM, the TGI [4] was 0.531 µM and the GI50 [5] was 0.435 µM. For the same compound, the TGI [5] was > 100 µM, the GI50 [6] was 0.385 µM and the TGI [6] was > 100 µM. The GI50 [7] was 0.383 µM, the TGI [7] was > 100 µM and the GI50 [8] was 0.293 µM. The TGI [8] was 0.757 µM, the GI50 [9] was 2.24 µM and the TGI [9] was > 100 µM. For the same compound, the GI50 [10] was 0.319 µM and the TGI [10] was > 100 µM.

In the case of `CCOC(=O)C1=C(C(=O)c2ccc(C)cc2)C(c2cccc([N+](=O)[O-])c2)C(C(=O)c2ccc(C)cc2)=C(C(=O)OCC)N1`, the TGI [1] is reported as 26.7 µM, the TGI [2] is reported as 25.8 µM and the TGI [3] is reported as 6.13 µM. For the same compound, the TGI [4] was 31.4 µM, the TGI [5] was 34.2 µM and the TGI [6] was 27.1 µM. For the same compound, the TGI [7] was 35.2 µM, the TGI [8] was > 100 µM and the TGI [9] was 43.2 µM. The TGI [10] was 32.9 µM.

With `CCc1cccc(C(C)C)c1NC(=O)C(=O)CC(=O)c1c(C)n([O-])c2ccccc2[n+]1=O` the TGI [1] was > 100 µM, the TGI [2] was > 100 µM and the TGI [3] was > 100 µM. The TGI [4] was > 100 µM, the TGI [5] was > 100 µM and the TGI [6] was > 100 µM. For the same compound, the TGI [7] was > 100 µM, the TGI [8] was > 100 µM and the TGI [9] was > 100 µM. For the same compound, the TGI [10] was > 100 µM.

With `Cc1ccc(S(=O)(=O)NCCNC2=CC(=O)c3nc4ccccc4c4ccnc2c34)cc1` the GI50 [1] was 19.1 µM, the TGI [1] was 38.3 µM and the GI50 [2] was 24.7 µM. For the same compound, the TGI [2] was 63.9 µM, the GI50 [3] was 16.2 µM and the TGI [3] was 48.1 µM. It also gave a GI50 [4] of 16.6 µM, a TGI [4] of 42.4 µM and a GI50 [5] of 26.7 µM. It also gave a TGI [5] of 57.9 µM, a GI50 [6] of 19.6 µM and a TGI [6] of 97.2 µM. It also gave a GI50 [7] of 22.2 µM, a TGI [7] of 54.4 µM and a GI50 [8] of 33 µM. The TGI [8] was > 100 µM, the GI50 [9] was 20.2 µM and the TGI [9] was 40.1 µM. For the same compound, the GI50 [10] was 20.6 µM and the TGI [10] was 50.2 µM.

For `O=Cc1ccccc1OCCOc1cc(OCCOc2ccccc2C=O)c(OCCOc2ccccc2C=O)cc1OCCOc1ccccc1C=O`, the TGI [1] was > 79 µM, the TGI [2] was > 50.1 µM and the TGI [3] was > 100 µM. The TGI [4] was > 100 µM, the TGI [5] was > 100 µM and the TGI [6] was > 100 µM. For the same compound, the TGI [7] was > 100 µM, the TGI [8] was > 100 µM and the TGI [9] was 96.8 µM. The TGI [10] was > 71.3 µM.

`COc1ccc(-c2nc3sc(-c4ccc(Cl)cc4)cn3n2)cc1` was tested, and the GI50 [1] was 1.85 µM, the TGI [1] was 21.5 µM and the GI50 [2] was 1.03 µM. The TGI [2] was 2.29 µM, the GI50 [3] was 24.5 µM and the TGI [3] was > 50 µM. The GI50 [4] was > 50 µM, the TGI [4] was > 50 µM and the GI50 [5] was > 50 µM. For the same compound, the TGI [5] was > 50 µM, the GI50 [6] was 5.51 µM and the TGI [6] was > 50 µM. The GI50 [7] was 11.1 µM, the TGI [7] was > 50 µM and the GI50 [8] was > 50 µM. The TGI [8] was > 50 µM, the GI50 [9] was 2.01 µM and the TGI [9] was 5.62 µM. It also gave a GI50 [10] of 1.06 µM and a TGI [10] of 2.41 µM.

For `O=C(O)[C@@H]1[C@H](C(=O)O)[C@H](C(=O)O)C[C@@H]1C(=O)O`, the TGI [1] was > 100 µM, the TGI [2] was > 100 µM and the TGI [3] was > 100 µM. The TGI [4] was > 100 µM, the TGI [5] was > 100 µM and the TGI [6] was > 100 µM. For the same compound, the TGI [7] was > 100 µM, the TGI [8] was > 100 µM and the TGI [9] was > 100 µM. The TGI [10] was > 100 µM.

In the case of `CC(=O)NNc1nc(C)c(C(=O)NNC(=O)C(=O)Nc2c(C)cccc2C)s1`, the TGI [1] is reported as > 100 µM, the TGI [2] is reported as > 100 µM and the TGI [3] is reported as > 100 µM. For the same compound, the TGI [4] was > 100 µM, the TGI [5] was > 100 µM and the TGI [6] was > 100 µM. For the same compound, the TGI [7] was > 100 µM, the TGI [8] was > 100 µM and the TGI [9] was > 100 µM. For the same compound, the TGI [10] was > 100 µM.

With `O=C1C(c2c[nH]c3ccccc23)=C(c2c[nH]c3ccccc23)C(=O)N1O` the GI50 [1] was > 25 µM, the TGI [1] was > 25 µM and the GI50 [2] was > 25 µM. The TGI [2] was > 25 µM, the GI50 [3] was > 25 µM and the TGI [3] was > 25 µM. The GI50 [4] was 4.65 µM, the TGI [4] was > 25 µM and the GI50 [5] was > 25 µM. For the same compound, the TGI [5] was > 25 µM, the GI50 [6] was > 25 µM and the TGI [6] was > 25 µM. For the same compound, the GI50 [7] was > 25 µM, the TGI [7] was > 25 µM and the GI50 [8] was > 25 µM. For the same compound, the TGI [8] was > 25 µM, the GI50 [9] was > 25 µM and the TGI [9] was > 25 µM. For the same compound, the GI50 [10] was > 25 µM and the TGI [10] was > 25 µM.

`COc1cc2c(c(OC)c1OC)-c1ccc(N)c(=O)cc1[C@@H](NC(C)=O)CC2` was tested, and the GI50 [1] was 0.0289 µM, the TGI [1] was > 100 µM and the GI50 [2] was 0.0302 µM. The TGI [2] was > 100 µM, the GI50 [3] was 0.358 µM and the TGI [3] was > 100 µM. For the same compound, the GI50 [4] was 0.0256 µM, the TGI [4] was > 100 µM and the GI50 [5] was > 100 µM. The TGI [5] was > 100 µM, the GI50 [6] was < 0.01 µM and the TGI [6] was > 100 µM. For the same compound, the GI50 [7] was 0.0852 µM, the GI50 [8] was < 0.01 µM and the TGI [8] was 0.0353 µM. For the same compound, the GI50 [9] was 0.0852 µM, the TGI [9] was > 100 µM and the GI50 [10] was 0.108 µM. The TGI [10] was > 100 µM.
